# Calls of active or inactive are those of the source.
# How the values were obtained:
# [1] = molecular target: T1, Mannose-6-phosphate isomerase (Homo sapiens, UniProt P34949); experiment: MPI inhibition at elevated mannose 6-phosphate – biochemical, fluorescence intensity, high mannose 6-phosphate, primary screen (AID 1220)
# T1 sequence (P34949 whole entry): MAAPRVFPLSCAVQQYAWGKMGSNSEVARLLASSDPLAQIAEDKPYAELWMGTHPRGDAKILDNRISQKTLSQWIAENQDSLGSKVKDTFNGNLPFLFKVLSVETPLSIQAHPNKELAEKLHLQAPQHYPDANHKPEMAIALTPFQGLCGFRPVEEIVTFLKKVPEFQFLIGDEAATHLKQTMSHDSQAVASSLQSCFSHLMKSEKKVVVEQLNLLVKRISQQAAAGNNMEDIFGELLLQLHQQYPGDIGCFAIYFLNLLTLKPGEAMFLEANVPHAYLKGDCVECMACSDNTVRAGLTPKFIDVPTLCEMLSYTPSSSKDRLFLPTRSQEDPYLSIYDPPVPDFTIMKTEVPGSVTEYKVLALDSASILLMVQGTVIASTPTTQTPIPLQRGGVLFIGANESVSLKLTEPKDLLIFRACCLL
# [2] = molecular target: T2, Endoribonuclease toxin MazF (Escherichia coli K-12, UniProt P0AE70); experiment: substrate-only fluorescence increase artefacts – biochemical, single-stranded RNase substrate, counter-screen for MazEF activator project, dose response (AID 588502); type: functional
# T2 sequence (P0AE70 whole entry): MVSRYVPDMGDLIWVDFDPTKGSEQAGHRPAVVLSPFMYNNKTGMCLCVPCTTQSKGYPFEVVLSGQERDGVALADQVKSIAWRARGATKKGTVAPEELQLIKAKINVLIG
# [3] = molecular target: T2, Endoribonuclease toxin MazF; experiment: activation of MazEF endoribonuclease cleavage – biochemical, fluorescence, single-stranded RNA substrate, uHTS hits, dose response (AID 588481); type: functional
# Vero = experiment: cells; type: functional, cell-based; settings: Chlorocebus sabaeus
# [4] = toxicity toward HepG2 liver cells – cell-based, plate reader, cherry-pick, antagonist series, cytotoxicity control, dose response (AID 743416); type: functional
# [5] = A549 cell cytotoxicity, dose response, cytotoxicity control, plate reader, cherry-pick, antagonist series (AID 743412); type: functional, cell-based
# [6] = molecular target: T3, Replicative DNA helicase DnaB (Mycobacterium tuberculosis, UniProt P9WMR3); experiment: DnaB intein splicing inhibitors, dose response, biochemical, cell-free fluorescence (AID 449749); type: functional
# T3 sequence (P9WMR3 whole entry): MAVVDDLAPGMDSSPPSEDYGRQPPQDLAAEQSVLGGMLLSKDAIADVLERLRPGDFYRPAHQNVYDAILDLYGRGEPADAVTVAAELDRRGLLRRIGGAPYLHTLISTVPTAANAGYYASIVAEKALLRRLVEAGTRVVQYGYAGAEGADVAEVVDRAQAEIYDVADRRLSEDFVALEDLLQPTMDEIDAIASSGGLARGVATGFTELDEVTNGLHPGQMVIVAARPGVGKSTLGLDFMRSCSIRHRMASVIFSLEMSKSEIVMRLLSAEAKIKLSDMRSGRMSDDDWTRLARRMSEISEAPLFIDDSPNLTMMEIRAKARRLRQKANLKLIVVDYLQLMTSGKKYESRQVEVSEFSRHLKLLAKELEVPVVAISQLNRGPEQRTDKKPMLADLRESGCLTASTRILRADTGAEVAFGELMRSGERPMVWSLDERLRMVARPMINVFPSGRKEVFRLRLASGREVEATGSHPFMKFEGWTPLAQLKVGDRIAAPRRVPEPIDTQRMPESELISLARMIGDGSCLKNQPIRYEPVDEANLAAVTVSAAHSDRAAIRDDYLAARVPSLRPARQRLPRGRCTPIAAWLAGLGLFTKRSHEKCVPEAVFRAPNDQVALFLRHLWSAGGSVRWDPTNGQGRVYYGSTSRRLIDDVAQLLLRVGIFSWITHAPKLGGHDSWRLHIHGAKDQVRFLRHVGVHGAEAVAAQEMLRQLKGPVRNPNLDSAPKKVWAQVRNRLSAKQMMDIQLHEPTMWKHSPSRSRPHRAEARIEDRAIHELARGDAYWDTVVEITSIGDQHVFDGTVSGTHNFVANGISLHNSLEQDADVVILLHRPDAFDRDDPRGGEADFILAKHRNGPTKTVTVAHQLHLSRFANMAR
# [7] = blockade of melanocortin 4 receptor signaling – cell-based, plate reader, cherry pick, counter-screen for LGR2 antagonist project, dose response (AID 743444); type: functional;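 note: transfected HEK 293 cells stimulated with alpha-MSH peptide; potency of inhibitors of the alpha-MSH evoked signal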
# [8] = blockers of bursicon-stimulated LGR2 cAMP reporter – cell-based, HEK293, CRE-luciferase reporter, cherry pick, set 2, dose response (AID 743343); type: functional;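 note: transfected cells were stimulated with diluted bursicon conditioned medium after compound addition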
# Protein RecA = molecular target: T4, Protein RecA (Mycobacterium tuberculosis, UniProt P9WHJ3); experiment: Fluorescence Cell-Free Homogeneous Dose Retest to Identify Inhibitors of RecA-Intein Splicing Activity. [Related pubchem assays (depositor defined):AID2097, AID2223, AID489010, AID492950]; type: functional
# T4 sequence (P9WHJ3 whole entry): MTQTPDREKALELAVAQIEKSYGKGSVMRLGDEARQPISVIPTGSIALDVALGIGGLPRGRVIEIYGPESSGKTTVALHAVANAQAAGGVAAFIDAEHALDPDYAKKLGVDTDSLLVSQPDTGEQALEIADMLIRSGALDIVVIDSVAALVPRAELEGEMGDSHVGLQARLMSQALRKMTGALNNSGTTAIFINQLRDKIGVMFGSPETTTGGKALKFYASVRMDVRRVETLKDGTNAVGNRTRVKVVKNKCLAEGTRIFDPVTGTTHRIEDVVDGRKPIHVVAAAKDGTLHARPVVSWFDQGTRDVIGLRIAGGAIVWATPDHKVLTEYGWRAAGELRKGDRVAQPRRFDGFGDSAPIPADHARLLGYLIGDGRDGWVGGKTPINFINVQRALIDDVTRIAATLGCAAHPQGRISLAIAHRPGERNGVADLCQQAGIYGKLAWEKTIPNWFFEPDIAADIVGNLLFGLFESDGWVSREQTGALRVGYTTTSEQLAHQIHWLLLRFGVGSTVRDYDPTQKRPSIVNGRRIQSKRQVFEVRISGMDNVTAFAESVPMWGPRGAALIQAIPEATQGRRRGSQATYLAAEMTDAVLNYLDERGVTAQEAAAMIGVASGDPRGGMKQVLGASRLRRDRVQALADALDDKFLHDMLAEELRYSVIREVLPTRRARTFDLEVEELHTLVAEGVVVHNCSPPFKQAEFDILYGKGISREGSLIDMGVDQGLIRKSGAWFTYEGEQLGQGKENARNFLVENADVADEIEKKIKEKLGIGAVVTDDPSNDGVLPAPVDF
# [9] = viability loss in HEK293 cells – cell-based, plate reader, cherry-picked samples, cytotoxicity control, dose response (AID 743446); type: functional
# [10] = molecular target: T5, High affinity choline transporter 1 (Homo sapiens, UniProt Q9GZV3); experiment: human choline transporter blockers, potency – cell-based, 5-point CRC, membrane potential dye, dose response (AID 504840); type: functional
# T5 sequence (Q9GZV3 whole entry): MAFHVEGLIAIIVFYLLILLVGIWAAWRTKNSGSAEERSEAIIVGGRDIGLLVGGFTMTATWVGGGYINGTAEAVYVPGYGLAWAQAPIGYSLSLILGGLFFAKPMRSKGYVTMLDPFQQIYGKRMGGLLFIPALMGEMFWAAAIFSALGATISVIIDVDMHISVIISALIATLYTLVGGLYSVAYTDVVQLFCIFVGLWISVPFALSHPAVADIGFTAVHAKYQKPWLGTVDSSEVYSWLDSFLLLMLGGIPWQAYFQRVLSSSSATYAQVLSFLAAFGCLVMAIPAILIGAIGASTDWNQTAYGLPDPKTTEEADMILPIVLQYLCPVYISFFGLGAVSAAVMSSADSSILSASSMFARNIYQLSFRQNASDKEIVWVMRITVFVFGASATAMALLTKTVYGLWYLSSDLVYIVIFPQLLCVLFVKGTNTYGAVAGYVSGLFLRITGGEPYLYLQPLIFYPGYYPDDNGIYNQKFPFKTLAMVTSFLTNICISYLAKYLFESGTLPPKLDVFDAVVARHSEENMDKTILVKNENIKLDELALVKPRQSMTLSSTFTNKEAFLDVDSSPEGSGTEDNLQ
# [11] = molecular target: Glyceraldehyde-3-phosphate dehydrogenase (Homo sapiens, UniProt P04406)
# Sequence of Glyceraldehyde-3-phosphate dehydrogenase (P04406 whole entry): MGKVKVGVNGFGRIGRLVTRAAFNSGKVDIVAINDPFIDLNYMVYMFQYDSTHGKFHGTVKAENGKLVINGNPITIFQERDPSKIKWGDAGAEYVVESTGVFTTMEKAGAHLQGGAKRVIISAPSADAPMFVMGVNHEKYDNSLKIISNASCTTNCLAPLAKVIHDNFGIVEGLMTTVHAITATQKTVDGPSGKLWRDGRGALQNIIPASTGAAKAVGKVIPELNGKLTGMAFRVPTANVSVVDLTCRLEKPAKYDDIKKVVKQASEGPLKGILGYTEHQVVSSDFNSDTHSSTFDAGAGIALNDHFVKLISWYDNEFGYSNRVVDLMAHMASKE
# [12] = viability loss in human Jurkat cells – cell-based, luminescence, cytotoxicity control for P. falciparum gametocyte viability project, dose response (AID 1117277); type: functional;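 note: potency reflects loss of cellular ATP meaning fewer viable cells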
# [13] = viability inhibitors of stage V gametocytes – luminescence, dose response (AID 1117278); type: functional, cell-based;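 note: gametocytes exposed to compound for 24 hours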
# Paired box protein Pax-8 = Paired box protein Pax-8 (Homo sapiens, UniProt Q06710); experiment: PAX8 transcriptional activity inhibition in RMG-I – RMG-I cells, luciferase, cherry-pick, dose response (AID 687027); type: functional, cell-based;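 note: luciferase reporter driven by Pax8 target thyroperoxidase promoter measured by SteadyGlo luminescence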
# Sequence of Paired box protein Pax-8 (Q06710 whole entry): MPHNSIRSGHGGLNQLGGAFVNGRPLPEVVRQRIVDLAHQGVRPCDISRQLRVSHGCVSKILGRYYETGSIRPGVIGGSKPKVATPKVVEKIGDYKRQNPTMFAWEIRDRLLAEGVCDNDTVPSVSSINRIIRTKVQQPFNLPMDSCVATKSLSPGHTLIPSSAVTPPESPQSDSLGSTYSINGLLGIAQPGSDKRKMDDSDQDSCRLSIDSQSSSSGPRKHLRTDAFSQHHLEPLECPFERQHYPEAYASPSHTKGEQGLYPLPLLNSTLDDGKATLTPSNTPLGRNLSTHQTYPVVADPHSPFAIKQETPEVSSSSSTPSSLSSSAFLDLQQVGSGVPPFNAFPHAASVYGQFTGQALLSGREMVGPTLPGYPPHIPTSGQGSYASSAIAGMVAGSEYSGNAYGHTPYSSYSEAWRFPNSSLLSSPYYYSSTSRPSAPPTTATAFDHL
# Coagulation factor XII = molecular target: T6, Coagulation factor XII (Homo sapiens, UniProt P00748); type: functional;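 note: activated factor XIIa alpha cleaving a fluorogenic AMC peptide substrate; inhibitor potency from loss of enzyme activity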
# T6 sequence (P00748 whole entry): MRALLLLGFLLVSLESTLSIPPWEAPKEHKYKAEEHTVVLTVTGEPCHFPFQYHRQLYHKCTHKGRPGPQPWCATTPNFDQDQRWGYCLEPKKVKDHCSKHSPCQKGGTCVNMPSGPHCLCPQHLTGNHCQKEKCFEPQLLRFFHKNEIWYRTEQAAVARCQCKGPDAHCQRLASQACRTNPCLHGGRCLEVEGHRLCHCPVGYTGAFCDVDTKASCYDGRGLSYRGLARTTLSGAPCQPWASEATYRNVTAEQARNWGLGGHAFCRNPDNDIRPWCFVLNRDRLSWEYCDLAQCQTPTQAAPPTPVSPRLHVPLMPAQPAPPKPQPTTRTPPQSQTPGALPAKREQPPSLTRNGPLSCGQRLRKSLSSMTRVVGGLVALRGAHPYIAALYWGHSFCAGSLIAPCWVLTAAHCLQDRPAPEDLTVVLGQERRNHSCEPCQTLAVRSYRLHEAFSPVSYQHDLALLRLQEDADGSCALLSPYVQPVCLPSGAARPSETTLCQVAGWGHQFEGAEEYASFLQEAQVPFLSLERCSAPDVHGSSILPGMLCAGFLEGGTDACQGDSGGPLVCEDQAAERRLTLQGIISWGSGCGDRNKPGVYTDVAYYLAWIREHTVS
structure (smiles),measurement,setting,value
CC(/C=C/c1ccco1)=N\NC(=O)CNc1ccc2ccccc2c1,IC50,[1],> 50 µM (not active)
CC/C(C)=N/NS(=O)(=O)c1ccc(C)c([N+](=O)[O-])c1,EC50,[2],7.91 µM (active)
same,EC50,[3],> 99 µM (inactive)
COc1ccc(NC(=O)[C@H](Cc2c[nH]c3ccccc23)NC(=O)[C@@H]2Cc3ccccc3CN2)cc1,IC50,Vero,11.8 µM (active)
CN(C(=O)c1ccc(S(=O)(=O)c2cccc(Cl)c2)c([N+](=O)[O-])c1)C1CCCCC1,AC50,[4],16.2 µM (active)
same,AC50,[5],15.8 µM (active)
same,AC50,[6],5.56 µM (active)
same,AC50,[7],7.45 µM (active)
same,AC50,[8],5.15 µM (active)
same,EC50,Protein RecA,4.33 µM (active)
same,AC50,[9],13.8 µM (active)
CCN(CC)CCCNC(=O)c1cc(-c2ccc(Cl)c(Cl)c2)on1,IC50,[10],12.9 µM (active)
CC(C)CCNC(=O)c1cc(-c2ccc(Cl)cc2Cl)n[nH]1,IC50,[11],> 10 µM (inconclusive)
Cc1ccc(-n2c(C)nn(Cc3ccc([N+](=O)[O-])cc3)c2=O)cc1,IC50,[12],> 83.4 µM (inactive)
same,IC50,[13],> 109 µM (inactive)
Cn1nnnc1Sc1ncnc2scc(-c3cccc(C(F)(F)F)c3)c12,AC50,[4],16.4 µM (active)
same,AC50,[5],10.1 µM (active)
same,AC50,[7],5.97 µM (active)
same,AC50,Paired box protein Pax-8,3.41 µM (active)
same,AC50,[8],6.18 µM (active)
same,AC50,[9],9.08 µM (active)
O=C(O)COc1ccc(NC(=O)c2cccs2)cc1,IC50,[12],> 83.3 µM (inactive)
same,IC50,[13],> 109 µM (inactive)
CN(C)S(=O)(=O)c1cccc(NC(=O)COC(=O)COc2ccc(Br)cc2)c1,IC50,[12],> 83.3 µM (inactive)
same,IC50,[13],> 109 µM (inactive)
CCC(=O)NC(C)C(c1cccs1)N1CCOCC1 (centres undefined),IC50,[12],> 83.3 µM (inactive)
same,IC50,[13],> 109 µM (inactive)
CC(=O)NS(=O)(=O)c1ccc(NC(=S)NC(=O)c2ccco2)cc1,IC50,Coagulation factor XII,> 50 µM (inactive)
Cc1nn(CCCC(=O)O)c(C)c1[N+](=O)[O-],IC50,[12],> 83.4 µM (inactive)
same,IC50,[13],> 109 µM (inactive)
Cc1ccc(C[S+]([O-])Cc2ccc(C(=O)NC3CCC(C)CC3)o2)cc1 (centres undefined),IC50,[10],13.8 µM (active)
NS(=O)(=O)c1ccc(Cl)cc1[N+](=O)[O-],IC50,Coagulation factor XII,> 50 µM (inactive)
Oc1ccccc1-c1nc(NCc2ccccc2)c2ccccc2n1,EC50,[2],> 99 µM (inactive)
same,EC50,[3],> 99 µM (inactive)
O=C(Nc1ccc(S(=O)(=O)Nc2cnc3ccccc3n2)cc1)c1cc(F)c(F)cc1Cl,IC50,[10],12.1 µM (active)
O=C(Nc1ccc(Cl)c(C(F)(F)F)c1)N1CCCC(O)C1 (centres undefined),IC50,Coagulation factor XII,> 50 µM (inactive)
COc1cc(C(N)=O)cc(Cl)c1OC,IC50,Coagulation factor XII,> 50 µM (inactive)
CCOc1ccc2c(c1)c1nc3ccccc3nc1n2C,EC50,[2],> 99 µM (inactive)
same,EC50,[3],> 99 µM (inactive)

# — ChEMBL document CHEMBL1201862, “PubChem BioAssay data set” (2004)
